# Assay results as given in US9415096B2 (priority 2007, dated 2016).
# Ends that are not written are not given here.
# What was measured:
# [1] = tested on: panc-1 cells; experiment: Cytotoxicity test (chromium release assay) of peptide-induced killer T cells against panc-1; conditions: for HLA-A2 restricted and FOXM1-specific cytotoxic activity of induced killer T cells: chromium release assay, panc-1 (HLA-A2 positive) versus PK-8 (HLA-A2 negative); for cytotoxic activity against panc-1 cells: killer T cells from breast cancer patients induced with the peptide, panc-1 HLA-A2 positive, FOXM1-expressing
# [2] = tested on: PK-8 cells; experiment: Cytotoxicity test (chromium release assay) of peptide-induced killer T cells against PK-8; conditions: killer T cells from breast cancer patients induced with the peptide; PK-8 HLA-A2 negative, FOXM1 positive
Sequence,HLA-A2 restricted and FOXM1-specific cytotoxic activity of induced killer T cells [1],cytotoxic activity against panc-1 cells [1],cytotoxic activity against PK-8 cells [2]
"GLMDLSTTPL [FOXM1 640-649, GLMDLSTTPL]",HLA-A2 restricted and FOXM1-specific cytotoxic activity was observed,strong cytotoxic activity,did not show cytotoxic activity
"YLVPIQFPV [FOXM1 362-370, YLVPIQFPV]",HLA-A2 restricted and FOXM1-specific cytotoxic activity was observed,strong cytotoxic activity,did not show cytotoxic activity
"SLVLQPSVKV [FOXM1 373-382, SLVLQPSVKV]",HLA-A2 restricted and FOXM1-specific cytotoxic activity was observed,strong cytotoxic activity,did not show cytotoxic activity
